The test deals with M. tuberculosis H37Rv growth inhibition. As to the kind of experiment: Mycobacterium tuberculosis H37Rv growth inhibition, putative kinase inhibitor library, confirmatory dose response (AID 2842).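 Also: bacteria incubated one week before Alamar blue readout.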

Each structure is given as a SMILES string. In brackets after ≈: the same amount, converted by molar mass.

Our source for the IC90 values is PubChem BioAssay AID2842 (Southern Research Institute, 2010).

For the compound `O=C(CCOc1ccccc1)Nc1nnc(-c2cc(Cl)ccc2Cl)o1`, the IC90 is 1.79 µg/mL (≈ 4.73 µM).

With `CC1CCN(S(=O)(=O)c2ccc(C(=O)NNc3nc4c(Cl)cccc4s3)cc2)CC1`, the IC90 is 24.7 µg/mL (≈ 53.1 µM).

Regarding `Cc1cc(Cl)cc2sc(N(CCCn3ccnc3)C(=O)c3ccco3)nc12`, the IC90 is less than 0.2 µg/mL.

On to `O=C(Nc1nnc(-c2ccccc2)o1)c1ccco1`, for which the IC90 was 2.78 µg/mL (≈ 10.9 µM).

Regarding `O=C(CSc1nc(-c2cccc(F)c2)[nH]c1-c1ccccc1)Nc1ccc2c(c1)OCO2`, the IC90 was 5.1 µg/mL (≈ 11.4 µM).

Consider `O=C(CCOc1ccccc1)Nc1nnc(-c2ccccc2)o1`, for which the IC90 was 6.68 µg/mL (≈ 21.6 µM).

In the case of `CCS(=O)(=O)c1cccc(C(=O)Nc2nnc(-c3ccc4c(c3)CCCC4)o2)c1`, the IC90 is 16.3 µg/mL (≈ 39.7 µM).

Regarding `Cc1ccc(C)c(-c2nnc(NC(=O)c3ccc(C#N)cc3)o2)c1`, the IC90 was 23.1 µg/mL (≈ 72.5 µM).

Regarding `CCOC(=O)COc1ccc2cc(-c3ccc(OC)c(OC)c3)c(=O)oc2c1`, the IC90 was 2.18 µg/mL (≈ 5.67 µM).

Regarding `Cc1ccc(C)c(-c2nnc(NC(=O)c3ccccc3[N+](=O)[O-])o2)c1`, the 90% effect concentration (IC90) was 4.88 µg/mL (≈ 14.4 µM).

For the compound `COc1ccc(CNC(=O)c2c(C)oc3c2C(=O)c2ccccc2C3=O)cc1`, the IC90 was 1.1 µg/mL (≈ 2.93 µM).

Turning to `O=C(OCn1nnc2ccccc2c1=O)c1ccco1`, the concentration for an effect of 90% (IC90) is 4.76 µg/mL (≈ 17.5 µM).

Regarding `CS(=O)(=O)NNc1ccc([N+](=O)[O-])cc1[N+](=O)[O-]`, the IC90 is 11.6 µg/mL (≈ 41.9 µM).

On to `CCCCC(=O)Nc1nnc(-c2ccc(Br)cc2)o1`, for which the IC90 was 2.3 µg/mL (≈ 7.09 µM).

As for `CCCc1cc(-c2nc(N)ncc2-c2ccc3c(c2)OCO3)c(O)cc1OC`, the 90% effect concentration (IC90) is 17.6 µg/mL (≈ 46.4 µM).

On to `COc1ccc2nc(Nc3nc(-c4ccccn4)cs3)sc2c1`, for which the 90% effect concentration (IC90) was less than 0.2 µg/mL.

As for `COc1ccccc1-c1cnn2c(NC3CCCCC3)cc(C)nc12`, the IC90 was 13.5 µg/mL (≈ 40.2 µM).

For the compound `O=C(Nc1nc2c(s1)COc1ccccc1-2)c1cccc(NS(=O)(=O)c2ccc(F)cc2)c1`, the IC90 is 13.4 µg/mL (≈ 27.8 µM).

For `O=C(Nc1cccc(Cl)c1)c1cccc2nc3ccccc3nc12`, the concentration for an effect of 90% (IC90) was 4.6 µg/mL (≈ 13.8 µM).

In the case of `NC(=O)c1c(Nc2nc3ccc(F)cc3s2)sc2c1CCCC2`, the IC90 is 51.3 µg/mL (≈ 148 µM).

As for `CCOC(=O)c1ccc(-n2cc(O)c(C(=O)OCC)n2)cc1`, the IC90 was 20 µg/mL (≈ 65.7 µM).

For the compound `COc1ccc2nc(NNC(=O)c3cc4ccccc4oc3=O)sc2c1`, the IC90 was 30.8 µg/mL (≈ 83.8 µM).

With `CC(=O)Nc1nnc(-c2cc(C)ccc2C)o1`, the IC90 is 20.2 µg/mL (≈ 87.3 µM).

Turning to `CSc1nnc(C)c(=O)n1COC(=O)/C=C/c1ccc2c(c1)OCO2`, the IC90 was 11.2 µg/mL (≈ 31 µM).

On to `Cc1cccc2sc(NNC(=O)c3cc(-c4cccs4)nc4ccccc34)nc12`, for which the IC90 was 22.8 µg/mL (≈ 54.8 µM).

Regarding `CCOc1ccc2c(c1)c1nnc(-c3ccc(OC)cc3)c-1cn2Cc1cccc(C)c1`, the IC90 is 20.7 µg/mL (≈ 48.9 µM).

For `N#Cc1ccc(C(=O)Nc2nnc(-c3ccc(Cl)cc3)o2)cc1`, the IC90 was 56.7 µg/mL (≈ 174 µM).

In the case of `O=C(Nc1nnc(-c2ccncc2)o1)c1cc(Cl)ccc1Cl`, the concentration for an effect of 90% (IC90) was 6.58 µg/mL (≈ 19.6 µM).

With `O=C(Nc1nnc(-c2ccc3c(c2)CCCC3)o1)c1ccc(Cl)cc1Cl`, the concentration for an effect of 90% (IC90) was 0.91 µg/mL (≈ 2.34 µM).

Consider `CCOc1ccc2nc(N(CCCn3ccnc3)C(=O)c3ccc(F)cc3)sc2c1`, for which the IC90 is 7.77 µg/mL (≈ 18.3 µM).

As for `O=C(Nc1nc(-c2ccc3c(c2)OCCO3)cs1)c1cccc(C(F)(F)F)c1`, the 90% effect concentration (IC90) is 13.9 µg/mL (≈ 34.3 µM).

Regarding `COc1ccc(-c2nnc(NC(=O)c3ccc(Cl)cc3Cl)o2)cc1`, the IC90 is 14.1 µg/mL (≈ 38.7 µM).

Turning to `Cc1ccccc1C(=O)Nc1nnc(-c2ccncc2)o1`, the IC90 is 13.5 µg/mL (≈ 48.2 µM).

Consider `COc1ccc(-c2nc(N3CCC(C)CC3)nc3n[nH]c(N)c23)cc1`, for which the IC90 was 2.14 µg/mL (≈ 6.32 µM).

`N#Cc1ccc(C(=O)Nc2nnc(-c3cccnc3)o2)cc1`: the IC90 was 53.3 µg/mL (≈ 183 µM).

Regarding `Cc1ccc(NCCCn2c(C)c(C)n3c4c(=O)[nH]c(=O)n(C)c4nc23)c(C)c1`, the IC90 is 14.3 µg/mL (≈ 36.2 µM).

Turning to `Cc1ccc(/C(O)=C2\C(=O)C(=O)N(c3ccccn3)C2c2cccc(Br)c2)cc1` (stereo not given), the IC90 is 21.4 µg/mL (≈ 47.7 µM).

`CCOC(=O)N1CCN(c2ncnc3c2cnn3-c2ccc(C)c(C)c2)CC1`: the IC90 was 9.11 µg/mL (≈ 23.9 µM).

As to `O=C1N/C(=N\N=C\c2ccccc2O)SC1Cc1ccc(Br)cc1` (stereo not given), the IC90 is 1.14 µg/mL (≈ 2.82 µM).

Take `O=C(Cc1cccc2ccccc12)Nc1nnc(-c2ccco2)o1`: the IC90 is 6.89 µg/mL (≈ 21.6 µM).

`Cc1ccc(-c2nnc(NC(=O)c3ccccc3[N+](=O)[O-])o2)c(C)c1`: the IC90 was 15.7 µg/mL (≈ 46.5 µM).

For the compound `Cc1cccc2nc(NC(=O)c3ccc(Oc4ccccc4)cc3)sc12`, the 90% effect concentration (IC90) was 8.53 µg/mL (≈ 23.7 µM).

Take `CCOC(=O)c1c(NC(=O)c2cccc3ccccc23)sc2c1CCN(CC)C2`: the 90% effect concentration (IC90) was 5.45 µg/mL (≈ 13.3 µM).

Regarding `CCc1ccc(Cc2cnc(NC(=O)c3c(C)coc3C)s2)cc1`, the IC90 was 7.42 µg/mL (≈ 21.8 µM).

As to `O=C(Nc1nnc(-c2ccco2)o1)c1ccc(Oc2ccccc2)cc1`, the IC90 was less than 0.2 µg/mL.

For the compound `Cc1ccc(C(=O)c2cn(Cc3ccc(F)cc3)c3ccc(F)cc3c2=O)cc1`, the IC90 was 12.5 µg/mL (≈ 32.2 µM).

Regarding `Cc1ccc(C)c(-c2nnc(NC(=O)c3ccccc3)o2)c1`, the IC90 was 24.5 µg/mL (≈ 83.7 µM).

For `COc1ccc(NC(=O)CCCN2C(=O)/C(=C\c3ccco3)SC2=S)cc1`, the IC90 was 3.3 µg/mL (≈ 8.2 µM).

`O=C(Nc1nnc(-c2ccc(Br)cc2)o1)C1=COCCO1`: the IC90 is 24.9 µg/mL (≈ 70.8 µM).

As for `O=C(Nc1nnc(C2=COCCO2)o1)c1ccc(Cc2ccccc2)cc1`, the IC90 was 28.1 µg/mL (≈ 77.4 µM).

What is called IC90 is the concentration at which the effect reaches the 90% level.
